From the NIST ThermoML archive (doi:10.1021/je020140j)

Assay: molar heat capacity at constant pressure; xn = mol fraction of the nth substance listed
Conditions: 101 kPa, Liquid, Small sample (50 mg) DSC

OCCO [1,2-ethanediol] + O
molar heat capacity at constant pressure [J/K/mol]
Conditions | x1 = 0.0312 | x1 = 0.0676 | x1 = 0.1105 | x1 = 0.162 | x1 = 0.2248 | x1 = 0.3031 | x1 = 0.4036 | x1 = 0.537 | x1 = 0.723 | x1 = 1
293.15 K | 88.03 | 87.6 | 86.7 | 89.39 | 93.61 | 98.37 | 104.66 | 114.3 | 127.9 | 147.47
303.15 K | 87.89 | 87.81 | 87.05 | 89.67 | 94.42 | 99.15 | 105.99 | 115.72 | 129.45 | 149.71
313.15 K | 88.36 | 88.19 | 87.48 | 90.47 | 94.89 | 100.31 | 108.06 | 117.68 | 131.2 | 152
323.15 K | 88.63 | 88.59 | 87.53 | 91 | 95.93 | 101.88 | 109.53 | 119.76 | 133.39 | 153.8
333.15 K | 88.8 | 88.99 | 87.76 | 91.5 | 96.6 | 102.38 | 111 | 121.18 | 135.38 | 156.22
343.15 K | 88.88 | 89.1 | 88.31 | 92.56 | 97.46 | 103.64 | 111.93 | 122.85 | 138.08 | 159.7
353.15 K | 89.15 | 89.47 | 88.97 | 92.31 | 98.61 | 104.99 | 113.83 | 124.97 | 140.57 | 161
363.15 K | 89.25 | 89.6 | 89.27 | 93.51 | 99.61 | 106.52 | 115.04 | 126.81 | 142.17 | 164.98
373.15 K | – | – | 89.52 | 93.89 | 100.23 | 107.47 | 116.01 | 128.22 | 144.36 | 168.45
